Molecules are shown by their SMILES. ≈ marks a conversion by molar mass, not a printed value.

The values below come from ChEMBL document CHEMBL5370681, “Lipid Tales: Optimizing Arylomycin Membrane Anchors” (ACS Med Chem Lett, 2023).

The subject of data set [1] is Escherichia coli. In words: Antibacterial activity against Escherichia coli 25922 incubated for 18 hrs by two-fold serial dilution method. It is filed as functional.
Data set [2] addresses Signal peptidase I (Escherichia coli K-12) (UniProt P00803). Kind of data set: Inhibition of LepB in Escherichia coli IMP assessed as antibacterial activity by measuring reduction in bacterial growth incubated for 18 hrs by two-fold serial dilution method.
Data set [3] concerns Escherichia coli. Kind of data set: Antibacterial activity against Escherichia coli 25922 incubated for 18 hrs in presence of 50% mouse serum by two-fold serial dilution method. It is filed as functional.
Data set [4] is described as follows: Unbound fraction in human plasma at 5 uM measured after 24 hrs by LC-MS/MS analysis. It is filed as ADME, cell-free.

Chain of Signal peptidase I (Escherichia coli K-12) (P00803 whole entry): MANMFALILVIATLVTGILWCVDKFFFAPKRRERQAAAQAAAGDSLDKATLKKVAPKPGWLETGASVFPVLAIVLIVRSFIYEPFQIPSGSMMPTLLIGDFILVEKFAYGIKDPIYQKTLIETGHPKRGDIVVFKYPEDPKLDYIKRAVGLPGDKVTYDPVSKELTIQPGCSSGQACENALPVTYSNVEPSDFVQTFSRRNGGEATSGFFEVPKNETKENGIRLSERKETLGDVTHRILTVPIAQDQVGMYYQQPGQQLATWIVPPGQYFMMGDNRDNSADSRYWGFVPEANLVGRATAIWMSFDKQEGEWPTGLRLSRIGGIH

As a reminder, the fraction unbound is free concentration divided by total concentration. Low readings indicate little free substance, high ones much free substance. For `Cc1cc(-c2ccc(C(C)(C)C)cc2)nc(N)c1C(=O)N[C@@H](CCN)C(=O)N(C)[C@@H]1C(=O)N[C@@H](C)C(=O)N[C@H](C(=O)NCC#N)Cc2ccc(OCCN)c(c2)-c2cc1ccc2OCCN`, the MIC in data set [1] came out at 0.23 µg/mL (≈ 0.254 µM); in data set [2], 0.007 µg/mL (≈ 0.00774 µM); in data set [3], 0.45 µg/mL. The same molecule came in with an unbound share (fraction unbound) at 24 h, 5 µM in data set [4] of 0.058.
